Laboratory results as given in PubChem BioAssay AID1963445 (Molecular Pharmacology Branch, DTP, NCI, 2024).

Tested on: MCF7 complex spheroid growth, % test/control
Assay: Anticancer human tumor MCF7 cell line growth inhibition [Asc];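 also: spheroids exposed to compounds for 7 days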;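 as to viability, T/C: 100% = DMSO vehicle control wells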
Conditions: for IC50: curve of first compound; for viability, T/C: stronger effect = lower value
Method in brief: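 Stromal components (HUVEC and hMSC) are co-assembled with the cancer cells into multicellular spheroids. Drugs are then added singly or paired, at concentrations falling by half-log increments from a clinically achievable maximum, capped at 10 microM without known Cmax.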

[1] = second compound 0.00316 µM, first compound 0.0316 µM
[2] = second compound 0.00316 µM, first compound 0.1 µM
[3] = second compound 0.00316 µM, first compound 0.316 µM
[4] = second compound 0.00316 µM, first compound 1 µM
[5] = second compound 0.00316 µM, first compound 3.16 µM
[6] = second compound 0.00316 µM, first compound 10 µM
[7] = second compound 0.01 µM, first compound 0.0316 µM
[8] = second compound 0.01 µM, first compound 0.1 µM
[9] = second compound 0.01 µM, first compound 0.316 µM
[10] = second compound 0.01 µM, first compound 1 µM
[11] = second compound 0.01 µM, first compound 3.16 µM
[12] = second compound 0.01 µM, first compound 10 µM
[13] = second compound 0.0316 µM, first compound 0.0316 µM
[14] = second compound 0.0316 µM, first compound 0.1 µM
[15] = second compound 0.0316 µM, first compound 0.316 µM
[16] = second compound 0.0316 µM, first compound 1 µM
[17] = second compound 0.0316 µM, first compound 3.16 µM
[18] = second compound 0.0316 µM, first compound 10 µM
[19] = second compound 0.1 µM, first compound 0.0316 µM
[20] = second compound 0.1 µM, first compound 0.1 µM
[21] = second compound 0.1 µM, first compound 0.316 µM
[22] = second compound 0.1 µM, first compound 1 µM
[23] = second compound 0.1 µM, first compound 3.16 µM
[24] = second compound 0.1 µM, first compound 10 µM
[25] = second compound 0.316 µM, first compound 0.0316 µM
[26] = second compound 0.316 µM, first compound 0.1 µM
[27] = second compound 0.316 µM, first compound 0.316 µM
[28] = second compound 0.316 µM, first compound 1 µM
[29] = second compound 0.316 µM, first compound 3.16 µM
[30] = second compound 0.316 µM, first compound 10 µM
[31] = second compound 1 µM, first compound 0.0316 µM
[32] = second compound 1 µM, first compound 0.1 µM
[33] = second compound 1 µM, first compound 0.316 µM
[34] = second compound 1 µM, first compound 1 µM
[35] = second compound 1 µM, first compound 3.16 µM
[36] = second compound 1 µM, first compound 10 µM

## C#Cc1c(F)ccc2cc(O)cc(-c3ncc4c(N5CC6CCC(C5)N6)nc(OCC56CCCN5CC(F)C6)nc4c3F)c12 (centres undefined) + CNC(C)C(=O)NC1CN(S(=O)(=O)c2cccc(S(=O)(=O)N3CCC4CCC(C(=O)NC(c5ccccc5)c5ccccc5)N4C(=O)C(NC(=O)C(C)NC)C3)c2)CCC2CCC(C(=O)NC(c3ccccc3)c3ccccc3)N2C1=O
Second compound 0.00316 µM
  IC50: < 31.6 nM
Second compound 0.01 µM
  IC50: < 31.6 nM
Second compound 0.0316 µM
  IC50: < 31.6 nM
Second compound 0.1 µM
  IC50: < 31.6 nM
Second compound 0.316 µM
  IC50: < 31.6 nM
Second compound 1 µM
  IC50: < 31.6 nM
[1]
  viability, T/C: 41.9%
[2]
  viability, T/C: 44.3%
[3]
  viability, T/C: 16.3%
[4]
  viability, T/C: 18.9%
[5]
  viability, T/C: 11.3%
[6]
  viability, T/C: 2.37%
[7]
  viability, T/C: 19%
[8]
  viability, T/C: 12.6%
[9]
  viability, T/C: 12.2%
[10]
  viability, T/C: 11.8%
[11]
  viability, T/C: 9.39%
[12]
  viability, T/C: 4.11%
[13]
  viability, T/C: 11.6%
[14]
  viability, T/C: 12.4%
[15]
  viability, T/C: 10.9%
[16]
  viability, T/C: 11.4%
[17]
  viability, T/C: 9.52%
[18]
  viability, T/C: 3.7%
[19]
  viability, T/C: 12.5%
[20]
  viability, T/C: 10.4%
[21]
  viability, T/C: 11.9%
[22]
  viability, T/C: 11.2%
[23]
  viability, T/C: 11.4%
[24]
  viability, T/C: 3.67%
[25]
  viability, T/C: 12.8%
[26]
  viability, T/C: 12.9%
[27]
  viability, T/C: 12.2%
[28]
  viability, T/C: 10.8%
[29]
  viability, T/C: 11.4%
[30]
  viability, T/C: 2.21%
[31]
  viability, T/C: 13.9%
[32]
  viability, T/C: 12.2%
[33]
  viability, T/C: 13%
[34]
  viability, T/C: 10.6%
[35]
  viability, T/C: 8.64%
[36]
  viability, T/C: 1.87%

## C=C(F)C(=O)N1CCN(c2nc(OCC3CCCN3C)nc3c2CCN(c2cccc4cccc(Cl)c24)C3)CC1CC#N (centres undefined) + CNC(C)C(=O)NC1CN(S(=O)(=O)c2cccc(S(=O)(=O)N3CCC4CCC(C(=O)NC(c5ccccc5)c5ccccc5)N4C(=O)C(NC(=O)C(C)NC)C3)c2)CCC2CCC(C(=O)NC(c3ccccc3)c3ccccc3)N2C1=O
Second compound 0.00316 µM
  IC50: < 31.6 nM
Second compound 0.01 µM
  IC50: < 31.6 nM
Second compound 0.0316 µM
  IC50: < 31.6 nM
Second compound 0.1 µM
  IC50: < 31.6 nM
Second compound 0.316 µM
  IC50: < 31.6 nM
Second compound 1 µM
  IC50: < 31.6 nM
[1]
  viability, T/C: 47.7%
[2]
  viability, T/C: 38.8%
[3]
  viability, T/C: 29.2%
[4]
  viability, T/C: 15.9%
[5]
  viability, T/C: 1.96%
[6]
  viability, T/C: 0.09%
[7]
  viability, T/C: 14%
[8]
  viability, T/C: 12%
[9]
  viability, T/C: 15%
[10]
  viability, T/C: 9.45%
[11]
  viability, T/C: 2.95%
[12]
  viability, T/C: 0.08%
[13]
  viability, T/C: 13.4%
[14]
  viability, T/C: 9.36%
[15]
  viability, T/C: 10.1%
[16]
  viability, T/C: 7.62%
[17]
  viability, T/C: 2.55%
[18]
  viability, T/C: 0.08%
[19]
  viability, T/C: 12%
[20]
  viability, T/C: 10.8%
[21]
  viability, T/C: 11%
[22]
  viability, T/C: 7.97%
[23]
  viability, T/C: 1.68%
[24]
  viability, T/C: 0.08%
[25]
  viability, T/C: 12%
[26]
  viability, T/C: 12%
[27]
  viability, T/C: 11.9%
[28]
  viability, T/C: 7.65%
[29]
  viability, T/C: 2.03%
[30]
  viability, T/C: 0.1%
[31]
  viability, T/C: 12.6%
[32]
  viability, T/C: 10.9%
[33]
  viability, T/C: 10.3%
[34]
  viability, T/C: 7.96%
[35]
  viability, T/C: 1.41%
[36]
  viability, T/C: 0.18%
